Data published in patent US9174983B2, “Pyrroloquinoline quinone disodium salt crystal and method for producing the same” (MITSUBISHI GAS CHEMICAL COMPANY, INC., priority 2011, dated 2015).
One block for each compound: values may come before it.

Experiments:
Type in all cases: physicochemical
[1] = Water content by the Karl Fischer method
Protocol: The water content (% by weight) of each crystal was determined by the Karl Fischer method.

[2] = Dispersibility test of PQQ disodium crystals in soybean oil (precipitation time); conditions: 5 mg crystal in 200 μL soybean oil, room temperature, time until all floating crystals precipitated to the bottom, index of dispersibility
Excerpt: In this example, the PQQ disodium crystal in Crystalline Form 1 and Crystalline Form 2 was compared in dispersibility in edible oils with the conventional crystals.
After drying, the pressure in the vessel was returned to atmospheric pressure, and immediately the glass vessel was closed with a lid. […] After drying, the temperature within the flask was reduced to room temperature with nitrogen gas refluxed.
Then, they were allowed to stand still at room temperature, and the time period until all of the crystals floating on the soybean oil were precipitated to the bottom of the vessel was measured, which was used as an index of dispersibility for each crystal.

[3] = Heat stability on heating in edible oil (high performance liquid chromatography); conditions: after heating in edible oil ODO at 150° C. for 30 minutes
[4] = Thermogravimetric analysis of water content; conditions: crystal formed at 180° C.
Excerpt: However, this crystal was unstable.

[5] = resulting crystal after the drying step, % by weight

water content ([1]; crystal as precipitated with ethanol, before drying): 14.5%
water content [1, 5]: 9.6%
Compound: O=C([O-])c1cc(C(=O)[O-])c2c(n1)C(=O)C(=O)c1cc(C(=O)O)[nH]c1-2.[Na+].[Na+] [Comparative Example 1, reference compound]

water content [1, 5]: 0.7%
water content ([1]; resulting crystal after the drying step, % by weight, listed as Example 2): 2.2%
water content ([1]; resulting crystal after the drying step, % by weight, listed as Example 3): 1.9%
Precipitation time [2]: 30 min
amount of impurities contained in the crystal [3]: did not increase
Compound: pyrroloquinoline quinone disodium crystal [Crystalline Form 1]

Precipitation time [2]: 45 min
water content [4]: ~0%
Compound: pyrroloquinoline quinone disodium crystal [Crystalline Form 2]

water content ([1]; after disposal at 40° C. and relative humidity 75%): 12.7%
Precipitation time [2]: 0.5 min
Precipitation time ([2]; listed as precursor crystal): 0.5 min
Compound: pyrroloquinoline quinone disodium crystal [Precursor crystal, reference compound]
